Assay results: patent publication US20260015364A1, “PIPERAZINE BRIDGE-SUBSTITUTED HETEROCYCLIC PYRIMIDINE COMPOUND” (MEDSHINE DISCOVERY INC., priority 2022, published 2026)

Columns and labels:
[1] = test system: GP2D cell subcutaneously transplanted tumors; experiment: In vivo pharmacodynamic experiment of GP2D tumor model; design: species or system Balb/c Nude mice; settings: p.o., BID, 28 days of administration
Protocol: In vivo pharmacodynamics of GP2D cell subcutaneously transplanted tumors in Balb/c Nude mice model with human colon cancer
Cell culture: Human colon cancer GP2D cells were cultured in monolayer in vitro. The culture conditions were DMEM/F12 medium+20% fetal bovine serum, and cultured in a 37° C., 5% carbon dioxide incubator. Routine digestion with trypsin-EDTA was performed twice a week for passaging. When the cell saturation reached 80% to 90% and the required quantity was reached, the cells were harvested, counted, resuspended in an appropriate amount of PBS, and mixed with matrigel at a ratio of 1:1 to obtain a cell suspension with a cell density of 25×10^6 cells/mL.
Cell inoculation: 0.2 mL (5×10^6 cells/mouse) of GP2D cells (added with Matrigel with a volume ratio of 1:1) were subcutaneously inoculated into the right back of each mouse. […]
Tumor diameters were measured twice a week with a vernier caliper. […]
The tumor inhibitory efficacy of the compound was evaluated by TGI (%) or relative tumor proliferation rate T/C (%). […] The relative tumor volume (RTV) was calculated based on the results of tumor measurements. The calculation formula is RTV=Vt/V0, where V0 is the average tumor volume measured at the beginning of administration in groups (i.e., D0), and Vt is the average tumor volume measured at a certain measurement. […]

[2] = test system: GP2D human colon cancer cells with KRAS^G12D mutation; experiment: GP2D 3D CTG experiment (anti-proliferation); format: cell-based; settings: 120 h, 5 days incubation
Description: This experiment aims to verify the inhibitory effect of the compounds of the present disclosure on the proliferation of GP2D human colon cancer cells with KRAS^G12D mutation.
(§1) Cell line GP2D and DMEM medium were purchased from GIBCO, FBS was purchased from Hyclone, and L-glutamine was purchased from Invitrogen. The 96-well plate was purchased from Ultra Low Cluster. CellTiter-Glo® 3D Cell Viability Assay reagents (chemiluminescent 3D cell viability assay reagents) were purchased from Promega, and 2104 En Vision plate reader was purchased from PerkinElmer.
(§2) GP2D cells were cultured in an incubator at 37° C. with 5% CO2 under the conditions of DMEM+10% FBS+2 mM L-glutamine. Regular passaging was performed, and cells in the logarithmic growth phase were selected for plating. GP2D cells were seeded in a 96-well U-bottom cell culture plate, and each well of 135 μL cell suspension contained 6000 GP2D cells. The culture plate was cultured overnight in a 37° C., 5% CO2 incubator with 100% relative humidity. The test compound was diluted 5-fold to the eighth concentration using a pipette, ranging from 200 μM to 2.56 nM, and tested in duplicate. 78 μL of culture medium per well was added to an intermediate plate. […] A multimode microplate reader was used for reading. […]

[3] = test system: PANC04.03 human pancreatic cancer cells with KRAS^G12D mutation; experiment: PANC04.03 3D CTG experiment (anti-proliferation); format: cell-based; settings: Panc 04.03, 168 h, 7 days incubation
Description: This experiment aims to verify the inhibitory effect of the compounds of the present disclosure on the proliferation of PANC04.03 human pancreatic cancer cells with KRAS^G12D mutation.
as §1, with “PANC04.03” for “GP2D”, “RPMI-1640” for “DMEM”, “human insulin” for “L-glutamine”, “Yeasen.” for “Invitrogen.”, “Cluster,” for “Cluster.”
as §2, with “PANC04.03” for “GP2D”, “RPMI-1640+15% FBS+5 µg/mL human insulin.” for “DMEM+10% FBS+2 mM L-glutamine.”, “2000 PANC04.03” for “6000 GP2D”

**Q.** Which TGI ([1]; 30 mpk) does the source give for `C#Cc1c(F)ccc2cc(N)cc(-c3ncc4c(N5CC6CCC(C5)N6)nc(OC[C@@]56CC(=C)CN5C[C@@H]5C[C@@H]56)nc4c3F)c12` (single isomer, unassigned) [Compound 3] here?
**A.** 85.57%

**Q.** What about the TGI ([1]; 100 mpk) of the same compound?
**A.** 98.95%

**Q.** What about the IC50 [2] of the same compound?
**A.** 0.54 nM

**Q.** And the IC50 [3]?
**A.** 34.2 nM
